According to ChEMBL document CHEMBL3885861, “Open TG-GATES”:

Organism: Rattus norvegicus
Test: Open TG-GATES - Regimen: Single
Assay type: toxicity, organism-based, Sprague-Dawley
Design: regimen Single, gender Male, age 6 weeks
Conditions: in vivo, po, 100 mg/kg, route gavage, dose level Low; for APTT / Bas / Eos / Fbg / Hb / Ht / Lym / MCH / MCHC / MCV / Mono / Neu / PT / Plat / RBC / Ret / WBC: tissue Blood; for KIDNEY_L / KIDNEY_R / KIDNEY_TOTAL: tissue Kidney; for LIVER: tissue Liver; for A/G / ALP / ALT / AST / BUN / CRE / Ca / Cl / DBIL / GLC / IP / K / LDH / Na / PL / RALB / TBIL / TC / TG / TP / gamma-GTP: tissue Plasma

## CN/C(=N/CCSCc1nc[nH]c1C)NC#N [CIMETIDINE]
3 h
  TERMINAL_BW: 214.5 g
  APTT: 18.3 s
  Bas: 0%
  Eos: 1%
  Fbg: 220.4 mg/dL
  Hb: 13.1 g/dL
  Ht: 38.2%
  Lym: 78.6%
  MCH: 21.9 pg
  MCHC: 34.2%
  MCV: 64.1 fL
  Mono: 2.8%
  Neu: 16.8%
  PT: 12.8 s
  Plat: 127.8 x10_4/uL
  RBC: 596.2 x10_4/ul
  Ret: 8.3%
  WBC: 109.3 x10_2/uL
  KIDNEY_L: 1 g
  KIDNEY_R: 1 g
  KIDNEY_TOTAL: 2 g
  LIVER: 10 g
  A/G: 1.7
  ALP: 1167.2 IU/L
  ALT: 39.4 IU/L
  AST: 70.2 IU/L
  BUN: 9.6 mg/dL
  CRE: 0.4 mg/dL
  Ca: 10.6 mg/dL
  Cl: 102.6 meq/L
  DBIL: 0.072 mg/dL
  GLC: 195 mg/dL
  IP: 9.5 mg/dL
  K: 4 meq/L
  LDH: 154.4 IU/L
  Na: 140.6 meq/L
  PL: 140.6 mg/dL
  RALB: 3.4 g/dL
  TBIL: 0.1 mg/dL
  TC: 75.2 mg/dL
  TG: 47.4 mg/dL
  TP: 5.5 g/dL
  gamma-GTP: 0.6 IU/L
6 h
  TERMINAL_BW: 209.9 g
  APTT: 18.8 s
  Bas: 0%
  Eos: 1%
  Fbg: 216.8 mg/dL
  Hb: 13.2 g/dL
  Ht: 38%
  Lym: 77.6%
  MCH: 22.2 pg
  MCHC: 34.8%
  MCV: 63.7 fL
  Mono: 2.8%
  Neu: 17.6%
  PT: 13.1 s
  Plat: 135.7 x10_4/uL
  RBC: 596.8 x10_4/ul
  Ret: 7.8%
  WBC: 98.4 x10_2/uL
  KIDNEY_L: 1 g
  KIDNEY_R: 1 g
  KIDNEY_TOTAL: 1.9 g
  LIVER: 9.7 g
  A/G: 1.6
  ALP: 885 IU/L
  ALT: 34.4 IU/L
  AST: 64 IU/L
  BUN: 9.6 mg/dL
  CRE: 0.4 mg/dL
  Ca: 10.6 mg/dL
  Cl: 102.4 meq/L
  DBIL: 0.07 mg/dL
  GLC: 194.6 mg/dL
  IP: 9.6 mg/dL
  K: 3.7 meq/L
  LDH: 180 IU/L
  Na: 141.4 meq/L
  PL: 138 mg/dL
  RALB: 3.4 g/dL
  TBIL: 0.1 mg/dL
  TC: 70.6 mg/dL
  TG: 61.4 mg/dL
  TP: 5.5 g/dL
  gamma-GTP: 1.8 IU/L
9 h
  TERMINAL_BW: 209.3 g
  APTT: 20.3 s
  Bas: 0%
  Eos: 1%
  Fbg: 246 mg/dL
  Hb: 12.9 g/dL
  Ht: 36.9%
  Lym: 74%
  MCH: 22.4 pg
  MCHC: 34.9%
  MCV: 64.3 fL
  Mono: 2.4%
  Neu: 21%
  PT: 13.7 s
  Plat: 128.2 x10_4/uL
  RBC: 575.2 x10_4/ul
  Ret: 8.7%
  WBC: 88 x10_2/uL
  KIDNEY_L: 1 g
  KIDNEY_R: 1 g
  KIDNEY_TOTAL: 1.9 g
  LIVER: 9.2 g
  A/G: 1.6
  ALP: 890.8 IU/L
  ALT: 31.4 IU/L
  AST: 62 IU/L
  BUN: 11.6 mg/dL
  CRE: 0.3 mg/dL
  Ca: 10.5 mg/dL
  Cl: 103.4 meq/L
  DBIL: 0.076 mg/dL
  GLC: 194.4 mg/dL
  IP: 10 mg/dL
  K: 3.9 meq/L
  LDH: 137.4 IU/L
  Na: 141.4 meq/L
  PL: 135 mg/dL
  RALB: 3.4 g/dL
  TBIL: 0.1 mg/dL
  TC: 74.4 mg/dL
  TG: 42.8 mg/dL
  TP: 5.5 g/dL
  gamma-GTP: 1.2 IU/L
24 h
  TERMINAL_BW: 225.6 g
  APTT: 19.4 s
  Bas: 0%
  Eos: 1%
  Fbg: 227.2 mg/dL
  Hb: 12.7 g/dL
  Ht: 37.8%
  Lym: 79.8%
  MCH: 21.5 pg
  MCHC: 33.7%
  MCV: 63.7 fL
  Mono: 3.2%
  Neu: 14.8%
  PT: 12.8 s
  Plat: 135 x10_4/uL
  RBC: 593.4 x10_4/ul
  Ret: 7.2%
  WBC: 109.1 x10_2/uL
  KIDNEY_L: 1 g
  KIDNEY_R: 1.1 g
  KIDNEY_TOTAL: 2.1 g
  LIVER: 11.2 g
  A/G: 1.7
  ALP: 1060 IU/L
  ALT: 35.2 IU/L
  AST: 64.4 IU/L
  BUN: 15.8 mg/dL
  CRE: 0.4 mg/dL
  Ca: 10.8 mg/dL
  Cl: 102.2 meq/L
  DBIL: 0.1 mg/dL
  GLC: 199.4 mg/dL
  IP: 6.9 mg/dL
  K: 4.2 meq/L
  LDH: 155.6 IU/L
  Na: 140 meq/L
  PL: 143.8 mg/dL
  RALB: 3.4 g/dL
  TBIL: 0.2 mg/dL
  TC: 73.2 mg/dL
  TG: 98.8 mg/dL
  TP: 5.5 g/dL
  gamma-GTP: 1.6 IU/L
